Inhibition and IC50 data for 14 compounds are collected here from patent publication US20260297081A1, “COMPOUNDS AND METHODS OF TREATING CANCERS” (Cullgen Inc., priority 2023, published 2026).

In one test the target is CDK4 (Homo sapiens, UniProt P11802+Q16531). Nature of the test: CDK4 percentage degradation in Calu-1 cells (Table 6). The conditions noted are these: 16 hours; for inhibition at 0.04 µM: 40 nM; for inhibition at 0.2 µM: 200 nM. On the set-up: Cells that express cyclin D1-3 and CDK4/6 proteins were treated with heterobifunctional compounds; endogenous in cells; host or cells: Calu-1. It is filed as cell-based. The gist of the method:
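Percentage degradation of Cyclin D1 and CDK4 derived from densitometry of ECL Western blots on lysates of Calu-1 cells. Treatment was 16 h with compound at either 40 nM or 200 nM.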

The test system of the next test is MCF7 cells. Nature of the test: Anti-proliferation (viability) of MCF7 cells (Table 7, FIG. 2B). The test is classed as cell-based. The conditions noted are these: Homo sapiens, MCF7, MCF7 cells, 3-6 days, 10-point serial dilution; read-out: GI IC50 in MCF-7.

Chain of CDK4 (P11802 2-303 limits assumed): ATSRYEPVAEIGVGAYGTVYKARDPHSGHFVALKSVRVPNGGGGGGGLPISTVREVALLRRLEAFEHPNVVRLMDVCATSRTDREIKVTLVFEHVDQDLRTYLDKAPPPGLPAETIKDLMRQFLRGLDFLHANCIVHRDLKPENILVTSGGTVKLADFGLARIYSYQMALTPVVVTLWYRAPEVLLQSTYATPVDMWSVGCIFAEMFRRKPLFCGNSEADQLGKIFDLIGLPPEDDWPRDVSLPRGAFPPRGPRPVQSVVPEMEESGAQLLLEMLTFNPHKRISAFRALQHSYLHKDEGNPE
Chain of CDK4 (P24385 whole entry partner): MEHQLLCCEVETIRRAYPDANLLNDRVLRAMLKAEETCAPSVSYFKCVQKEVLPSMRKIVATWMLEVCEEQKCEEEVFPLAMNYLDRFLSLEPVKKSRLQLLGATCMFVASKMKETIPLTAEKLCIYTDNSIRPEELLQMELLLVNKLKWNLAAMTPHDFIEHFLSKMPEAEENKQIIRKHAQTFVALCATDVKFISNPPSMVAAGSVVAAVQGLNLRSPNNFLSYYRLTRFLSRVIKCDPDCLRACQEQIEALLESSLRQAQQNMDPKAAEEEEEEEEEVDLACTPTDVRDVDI
Chain of CDK4 (Q16531 2-1140 limits assumed): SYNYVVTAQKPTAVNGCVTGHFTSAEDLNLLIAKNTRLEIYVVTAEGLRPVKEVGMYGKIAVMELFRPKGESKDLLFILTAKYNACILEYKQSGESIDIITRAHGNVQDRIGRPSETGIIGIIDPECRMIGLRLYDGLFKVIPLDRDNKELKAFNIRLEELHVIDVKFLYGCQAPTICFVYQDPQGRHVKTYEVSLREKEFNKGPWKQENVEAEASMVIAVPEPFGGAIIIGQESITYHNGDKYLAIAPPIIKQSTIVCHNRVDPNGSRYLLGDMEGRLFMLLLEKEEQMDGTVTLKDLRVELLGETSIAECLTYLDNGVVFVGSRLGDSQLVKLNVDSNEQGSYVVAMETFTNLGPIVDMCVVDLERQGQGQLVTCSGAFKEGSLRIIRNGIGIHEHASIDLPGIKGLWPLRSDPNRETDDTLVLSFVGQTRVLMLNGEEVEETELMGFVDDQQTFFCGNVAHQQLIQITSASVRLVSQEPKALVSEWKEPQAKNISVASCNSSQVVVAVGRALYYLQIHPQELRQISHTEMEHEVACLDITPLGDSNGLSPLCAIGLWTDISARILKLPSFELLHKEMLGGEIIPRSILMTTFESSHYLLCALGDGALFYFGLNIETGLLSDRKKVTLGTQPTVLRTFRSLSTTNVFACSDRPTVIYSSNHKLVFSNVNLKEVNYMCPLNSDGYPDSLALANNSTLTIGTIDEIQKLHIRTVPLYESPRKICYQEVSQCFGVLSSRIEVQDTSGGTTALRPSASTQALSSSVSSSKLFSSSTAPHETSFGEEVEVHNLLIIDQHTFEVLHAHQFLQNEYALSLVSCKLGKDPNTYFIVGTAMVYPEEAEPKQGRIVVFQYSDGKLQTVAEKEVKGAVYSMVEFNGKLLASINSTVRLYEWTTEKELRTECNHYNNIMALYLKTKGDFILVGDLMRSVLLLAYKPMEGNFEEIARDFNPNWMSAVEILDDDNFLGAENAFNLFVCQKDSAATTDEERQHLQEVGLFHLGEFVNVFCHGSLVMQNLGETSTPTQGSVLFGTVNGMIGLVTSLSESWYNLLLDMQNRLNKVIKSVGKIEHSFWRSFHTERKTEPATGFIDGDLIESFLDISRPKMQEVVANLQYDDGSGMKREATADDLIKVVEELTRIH

`[2H]C([2H])([2H])Nc1ccc(C(=O)Nc2ccc(N(C)C)nn2)c(NC2CC3(C2)CN(C(=O)CC(N2CCN(c4ccc(Nc5ncc6c(C)c(C(C)=O)c(=O)n(C7CCCC7)c6n5)nc4)CC2)C(F)(F)F)C3)n1` (stereo not drawn) [CPD-342, 2-((2-(3-(4-(6-((6-acetyl-8-cyclopentyl-5-methyl-7-oxo-7,8-dihydropyrido[2,3-d]pyrimidin-2-yl)amino)pyridin-3-yl)piperazin-1-yl)-4,4,4-trifluorobutanoyl)-2-azaspiro[3.3]heptan-6-yl)amino)-N-(6-(dimethylamino)pyridazin-3-yl)-6-((methyl-d3)amino)nicotinamide]: at CDK4, the inhibition – broadly, the change of the read-out against control, counted positive when it falls – at 0.04 µM was < 30% and the inhibition at 0.2 µM is < 30%. The IC50 (usually the concentration that gives 50% inhibition) in the test on MCF7 cells is < 50 nM.
In the case of `CC(=O)c1c(C)c2cnc(Nc3ccc(N4CCN(C5CCN(C(=O)C6CC(Nc7nc(NC(C)C)ccc7C(=O)Nc7ccc(N(C)C)nn7)C6)C5)CC4)cn3)nc2n(C2CCCC2)c1=O` (stereo not drawn) [CPD-402, 2-((3-(3-(4-(6-((6-acetyl-8-cyclopentyl-5-methyl-7-oxo-7,8-dihydropyrido[2,3-d]pyrimidin-2-yl)amino)pyridin-3-yl)piperazin-1-yl)pyrrolidine-1-carbonyl)cyclobutyl)amino)-N-(6-(dimethylamino)pyridazin-3-yl)-6-(isopropylamino)nicotinamide], at CDK4, the inhibition at 0.04 µM is < 30% and the inhibition at 0.2 µM was < 30%. Moreover, in the test on MCF7 cells, the IC50 was 50 to 100 nM.
For `CC(=O)c1c(C)c2cnc(Nc3ccc(N4CCC5(CC4)CC5C(=O)N4CC5(CC(Nc6nc(NC(C)C)ccc6C(=O)Nc6ccc(N(C)C)nn6)C5)C4)cn3)nc2n(C2CCCC2)c1=O` (stereo not drawn) [CPD-411, 2-((2-(6-(6-((6-acetyl-8-cyclopentyl-5-methyl-7-oxo-7,8-dihydropyrido[2,3-d]pyrimidin-2-yl)amino)pyridin-3-yl)-6-azaspiro[2.5]octane-1-carbonyl)-2-azaspiro[3.3]heptan-6-yl)amino)-N-(6-(dimethylamino)pyridazin-3-yl)-6-(isopropylamino)nicotinamide], on CDK4, the inhibition at 0.04 µM is < 30% and the inhibition at 0.2 µM is < 30%. Besides, the IC50 in the test on MCF7 cells is < 50 nM.
With `[2H]C([2H])([2H])Nc1ccc(C(=O)Nc2ccc(N(C)C)nn2)c(NC2CC3(C2)CN(C(=O)CC(C)N2CCN(c4ccc(Nc5ncc6c(C)c(C(C)=O)c(=O)n(C7CCCC7)c6n5)nc4)CC2)C3)n1` (stereo not drawn) [CPD-341, 2-((2-(3-(4-(6-((6-acetyl-8-cyclopentyl-5-methyl-7-oxo-7,8-dihydropyrido[2,3-d]pyrimidin-2-yl)amino)pyridin-3-yl)piperazin-1-yl)butanoyl)-2-azaspiro[3.3]heptan-6-yl)amino)-N-(6-(dimethylamino)pyridazin-3-yl)-6-((methyl-d3)amino)nicotinamide], on CDK4, the inhibition at 0.04 µM is < 30% and the inhibition at 0.2 µM was < 30%. In the test on MCF7 cells, the IC50 is < 50 nM.
`[2H]C([2H])([2H])Nc1ccc(C(=O)Nc2cn(C)c(C3CC3)n2)c(NC2CC3(CC(NC(=O)CN4CCN(c5ccc(Nc6ncc7c(C)c(C(C)=O)c(=O)n(C8CCCC8)c7n6)nc5)CC4)C3)C2)n1` (stereo not drawn) [CPD-237, 2-((6-(2-(4-(6-((6-acetyl-8-cyclopentyl-5-methyl-7-oxo-7,8-dihydropyrido[2,3-d]pyrimidin-2-yl)amino)pyridin-3-yl)piperazin-1-yl)acetamido)spiro[3.3]heptan-2-yl)amino)-N-(2-cyclopropyl-1-methyl-1H-imidazol-4-yl)-6-((methyl-d3)amino)nicotinamide]: at CDK4, the inhibition at 0.04 µM fell in the range of 50 to 80% and the inhibition at 0.2 µM was in the range of 50 to 80%. The IC50 in the test on MCF7 cells was > 100 nM.
`CC(=O)c1c(C)c2cnc(Nc3ccc(N4CCN(CCC(=O)N5CC6(CC(Nc7nc(NC(C)C)ccc7C(=O)Nc7cn(C)c(C8CC8)n7)C6)C5)CC4)cn3)nc2n(C2CCCC2)c1=O` [CPD-323, 2-((2-(3-(4-(6-((6-acetyl-8-cyclopentyl-5-methyl-7-oxo-7,8-dihydropyrido[2,3-d]pyrimidin-2-yl)amino)pyridin-3-yl)piperazin-1-yl)propanoyl)-2-azaspiro[3.3]heptan-6-yl)amino)-N-(2-cyclopropyl-1-methyl-1H-imidazol-4-yl)-6-(isopropylamino)nicotinamide]: at CDK4, the inhibition at 0.04 µM was < 30% and the inhibition at 0.2 µM was < 30%. The half-maximal inhibitory concentration (IC50) in the test with MCF7 cells is < 50 nM.
In the case of `[2H]C([2H])([2H])Nc1ccc(C(=O)Nc2ccc(N(C)C)nn2)c(NC2CCN(C(=O)CN3CCN(c4ccc(Nc5ncc6c(C)c(C(C)=O)c(=O)n(C7CCCC7)c6n5)nc4)CC3)CC2)n1` [CPD-250, 2-((1-(2-(4-(6-((6-acetyl-8-cyclopentyl-5-methyl-7-oxo-7,8-dihydropyrido[2,3-d]pyrimidin-2-yl)amino)pyridin-3-yl)piperazin-1-yl)acetyl)piperidin-4-yl)amino)-N-(6-(dimethylamino)pyridazin-3-yl)-6-((methyl-d3)amino)nicotinamide], on CDK4, the inhibition at 0.04 µM lay within 30 to 50% and the inhibition at 0.2 µM was 50 to 80%. In the test with MCF7 cells, the IC50 fell in the range of 50 to 100 nM.
For `CNc1ccc(C(=O)Nc2ccc(N(C)C)nn2)c(NC2CCN(C(=O)CN3CCN(Cc4ccc(Nc5ncc6c(C)c(C(C)=O)c(=O)n(C7CCCC7)c6n5)nc4)CC3)CC2)n1` [CPD-300, 2-((1-(2-(4-((6-((6-acetyl-8-cyclopentyl-5-methyl-7-oxo-7,8-dihydropyrido[2,3-d]pyrimidin-2-yl)amino)pyridin-3-yl)methyl)piperazin-1-yl)acetyl)piperidin-4-yl)amino)-N-(6-(dimethylamino)pyridazin-3-yl)-6-(methylamino)nicotinamide], at CDK4, the inhibition at 0.04 µM is < 30% and the inhibition at 0.2 µM was < 30%. Besides, in the test with MCF7 cells, the IC50 is 50 to 100 nM.
On CDK4, `CNc1ccc(C(=O)Nc2ccc(N(C)C)nn2)c(NC2CC(Cn3cc(CN4CCN(c5ccc(Nc6ncc7c(C)c(C(C)=O)c(=O)n(C8CCCC8)c7n6)nc5)CC4)nn3)C2)n1` (stereo not drawn) [CPD-202, 2-((3-((4-((4-(6-((6-acetyl-8-cyclopentyl-5-methyl-7-oxo-7,8-dihydropyrido[2,3-d]pyrimidin-2-yl)amino)pyridin-3-yl)piperazin-1-yl)methyl)-1H-1,2,3-triazol-1-yl)methyl)cyclobutyl)amino)-N-(6-(dimethylamino)pyridazin-3-yl)-6-(methylamino)nicotinamide] returned an inhibition at 0.04 µM of 50 to 80% and an inhibition at 0.2 µM of 50 to 80%. In the test with MCF7 cells, the half-maximal inhibitory concentration (IC50) was < 50 nM.
Take `CNc1ccc(C(=O)Nc2ccc(N(C)C)nn2)c(NC2CCN(C(=O)C3CC34CCN(c3ccc(Nc5ncc6c(C)c(C(C)=O)c(=O)n(C7CCCC7)c6n5)nc3)CC4)CC2)n1` (stereo not drawn) [CPD-328, 2-((1-(6-(6-((6-acetyl-8-cyclopentyl-5-methyl-7-oxo-7,8-dihydropyrido[2,3-d]pyrimidin-2-yl)amino)pyridin-3-yl)-6-azaspiro[2.5]octane-1-carbonyl)piperidin-4-yl)amino)-N-(6-(dimethylamino)pyridazin-3-yl)-6-(methylamino)nicotinamide]: at CDK4, the inhibition at 0.04 µM is < 30% and the inhibition at 0.2 µM was < 30%. In the test on MCF7 cells, the IC50 was < 50 nM.
In the case of `[2H]C([2H])([2H])Nc1ccc(C(=O)Nc2cc(C)n(C)n2)c(NC2CC3(CC(NC(=O)CN4CCN(c5ccc(Nc6ncc7c(C)c(C(C)=O)c(=O)n(C8CCCC8)c7n6)nc5)CC4)C3)C2)n1` (stereo not drawn) [CPD-244, 2-((6-(2-(4-(6-((6-acetyl-8-cyclopentyl-5-methyl-7-oxo-7,8-dihydropyrido[2,3-d]pyrimidin-2-yl)amino)pyridin-3-yl)piperazin-1-yl)acetamido)spiro[3.3]heptan-2-yl)amino)-N-(1,5-dimethyl-1H-pyrazol-3-yl)-6-((methyl-d3)amino)nicotinamide], on CDK4, the inhibition at 0.04 µM is 30 to 50% and the inhibition at 0.2 µM was in the range of 50 to 80%. The IC50 with MCF7 cells was in the range of 50 to 100 nM.
The matching figures for `[2H]C([2H])([2H])Nc1ccc(C(=O)Nc2ccc(N(C)C)nn2)c(NC2CC3(CC(NC(=O)CN4CCN(c5ccc(Nc6ncc7c(C)c(C(C)=O)c(=O)n(C8CCCC8)c7n6)nc5)CC4)C3)C2)n1` (stereo not drawn) [CPD-241, 2-((6-(2-(4-(6-((6-acetyl-8-cyclopentyl-5-methyl-7-oxo-7,8-dihydropyrido[2,3-d]pyrimidin-2-yl)amino)pyridin-3-yl)piperazin-1-yl)acetamido)spiro[3.3]heptan-2-yl)amino)-N-(6-(dimethylamino)pyridazin-3-yl)-6-((methyl-d3)amino)nicotinamide]: 50 to 80%, 50 to 80% and 50 to 100 nM.
On the same counts, the results for `CC(=O)c1c(C)c2cnc(Nc3ccc(N4CCN(CC5(C(=O)N6CC7(CC(Nc8nc(NC(C)C)ccc8C(=O)Nc8cn(C)c(C9CC9)n8)C7)C6)CC5)CC4)cn3)nc2n(C2CCCC2)c1=O` [CPD-322, 2-((2-(1-((4-(6-((6-acetyl-8-cyclopentyl-5-methyl-7-oxo-7,8-dihydropyrido[2,3-d]pyrimidin-2-yl)amino)pyridin-3-yl)piperazin-1-yl)methyl)cyclopropane-1-carbonyl)-2-azaspiro[3.3]heptan-6-yl)amino)-N-(2-cyclopropyl-1-methyl-1H-imidazol-4-yl)-6-(isopropylamino)nicotinamide] are < 30%, < 30% and < 50 nM.
At CDK4, `CNc1ccc(C(=O)Nc2ccc(N(C)C)nn2)c(NC2CCN(C(=O)CCN3CCN(c4ccc(Nc5ncc6c(C)c(C(C)=O)c(=O)n(C7CCCC7)c6n5)nc4)CC3)CC2)n1` [CPD-203, 2-((1-(3-(4-(6-((6-acetyl-8-cyclopentyl-5-methyl-7-oxo-7,8-dihydropyrido[2,3-d]pyrimidin-2-yl)amino)pyridin-3-yl)piperazin-1-yl)propanoyl)piperidin-4-yl)amino)-N-(6-(dimethylamino)pyridazin-3-yl)-6-(methylamino)nicotinamide] gave an inhibition at 0.04 µM of 50 to 80% and an inhibition at 0.2 µM of 50 to 80%. Moreover, the IC50 in the test with MCF7 cells was < 50 nM.
